In US8178506B2, “Oligomeric compounds and compositions for use in modulation of small non-coding RNAs” (Regulus Therapeutics Inc., priority 2003, dated 2012):
In the oligonucleotide strings, read from the 5' end, every base follows the letter of its sugar. An asterisk marks phosphorothioate; unmarked linkages are phosphodiester. Other units and linkages are bracketed, terminal groups are in braces. A string of capitals states the bases alone. e = 2'-O-(2-methoxyethyl) (MOE); [5mC] = 5-methylcytosine

System: IL-6 mRNA
Assay: IL-6 mRNA in LPS-activated primary murine macrophages
Format: cell-based, mouse
Conditions: average of 3 treatments
Procedure, shortened: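 Thioglycollate-elicited peritoneal macrophages from female C57Bl/6 mice, transfected with miRNA-targeting oligomeric compounds via FuGENE 6 (1 μL per 100 nM compound) for ~24–28 h at 37 °C, optionally primed 4 h with 100 ng/mL IFN-gamma, then stimulated 24 h with 100 ng/mL LPS. IL-6 mRNA quantified by real-time PCR.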

| Substance | IL-6 mRNA expression, % UTC (75 nM, +IFN) [% UTC] | IL-6 mRNA expression, % UTC (75 nM, −IFN) [% UTC] | IL-6 mRNA expression, % UTC (150 nM, +IFN) [% UTC] | IL-6 mRNA expression, % UTC (150 nM, −IFN) [% UTC] | IL-6 mRNA expression, % UTC (300 nM, +IFN) [% UTC] | IL-6 mRNA expression, % UTC (300 nM, −IFN) [% UTC] | IL-6 mRNA expression, % UTC (600 nM, +IFN) [% UTC] | IL-6 mRNA expression, % UTC (600 nM, −IFN) [% UTC] |
| --- | --- | --- | --- | --- | --- | --- | --- | --- |
| 327921 (antisense e[5mC]*eT*eT*e[5mC]*e[5mC]*eA*eG*eT*e[5mC]*eG*eG*eG*eG*eA*eT*eG*eT*eT*eT*eA*e[5mC]*eA) [compound 327921] | 122 | 223 | 144 | 294 | 287 | 522 | 313 | 632 |
| 327941 (antisense eA*eA*e[5mC]*e[5mC]*e[5mC]*eA*e[5mC]*e[5mC]*eG*eA*e[5mC]*eA*eG*e[5mC]*eA*eA*eT*eG*eA*eA*eT*eG*eT*eT) [compound 327941] | 181 | 293 | 197 | 325 | 197 | 271 | 301 | 501 |
